According to US20240285555A1, “COMPOSITIONS FOR THE TREATMENT OF COPPER DEFICIENCY AND METHODS OF USE” (priority 2018, published 2024):

How the values were obtained:
BY4741 WT cells = experiment: Respiratory growth of wild type yeast with copper chelator BCS; assay type: cell-based, Saccharomyces cerevisiae; conditions: 10 nM ES co-treatment with 20 μM BCS
Protocol: The cell density was measured spectrophotoretrically at the indicated time points at 600 nm. The data are representative of two independent experiments.

coa6Δ cells = experiment: Oxygen consumption rate measurement; assay type: cell-based, Saccharomyces cerevisiae; conditions: 20 nM ES, YP galactose medium
Protocol: Oxygen Consumption Measurement. For measurements of respiration rates, cells were grown to late log phase in YPGal medium and then washed, counted, and resuspended in fresh YPGal medium at 10^8 cells/ml. The rate of oxygen consumption was then measured at 30° C. using the Oxytherm (Hansatech, Norfolk, UK). Cyanide-sensitive respiration was calculated after the addition of 1 mM KCN, and the cyanide-insensitive respiration was subtracted from the total respiration.

ccs1Δ cells = experiment: Respiratory growth rescue of ccs1Δ yeast; assay type: cell-based, Saccharomyces cerevisiae; conditions: non-fermentable media, 37° C.
Protocol: Yeast Strains and Culture Conditions. The authenticity of yeast strains was confirmed by PCR as well as by replica plating on dropout plates. Yeast cells were cultured in standard YP growth media including YPD (1% yeast extract, 2% peptone and 2% glucose), YPGal (2% galactose), YPGE (3% glycerol+1% ethanol), or synthetic media (SC glucose). For qualitative growth measurement, 10-fold serial dilutions of overnight cultures were spotted on YPD or YPGE plates and incubated at 30° C. and 37° C. for the indicated period. Growth in liquid media was measured spectrophotometrically at 600 nm.
ES Rescues Many Different Yeast Mutants with Impaired Copper Metabolism. To test the specificity of ES mediated rescue, a number of yeast mutants of genes required for maintaining cellular and mitochondrial copper homeostasis were shortlisted. Genes were prioritized based on their evolutionary conservation, presence of pathogenic mutations in humans, and/or the existence of a related mouse phenotype (Table 3, shown below). […] Most of the yeast mutants were rescued with ES supplementation, albeit to different degrees, reflecting their distinct roles in cellular and mitochondrial copper homeostasis. […]

control MEFs = experiment: COX1 levels in control mouse embryonic fibroblasts (toxicity); assay type: cell-based; conditions: higher doses of ES
Protocol: (§1) Mammalian Cell Culture. The human control MCH46 and SCO2 patient fibroblasts as well as the rat H9c2 control and Ctr1^−/− cardiomyocytes were cultured in high glucose Dulbecco's modified Eagle's medium (DMEM) supplemented with 10% fetal bovine serum (Sigma) and 1 mM sodium pyruvate (Life Technologies). The mouse embryonic fibroblasts were cultured in DMEM 10% FBS, 1 mM sodium pyruvate, 1× minimum essential medium non-essential amino acids (MEM NEAA; Life Technologies 11140), 50 μg/mL uridine, and 1× Pen Strep Glutamine (Life Technologies 10378). All cell lines were cultured under 5% CO2 at 37° C. and were treated with indicated concentrations of ES for 3-6 days before harvesting. Whole cell protein was extracted in lysis buffer (BP-115, Boston BioProducts) supplemented with protease inhibitor cocktail (Roche Diagnostics) and the protein concentrations were determined by BCA assay (Thermo Scientific).
(§2) Immunoblotting and In-gel Activities. Sodium dodecyl sulfate polyacrylamide gel electrophoresis (SDS-PAGE) and Blue Native PAGE (BN-PAGE) were performed to separate denatured and native protein complexes, respectively. For SDS-PAGE, mitochondrial lysate ([…]) was separated on NuPAGE 4-12% Bis-Tris gels (Life Technologies, Carlsbad, CA). For BN-PAGE, yeast mitochondria were solubilized in buffer containing 1% digitonin (Life Technologies) by incubating for 15 min at 4° C. […]

[1] = tested on: mottled-brindled (mo-br) mouse; experiment: Survival of Menkes (mo-br) mice after subcutaneous injections; assay type: in vivo
Protocol: Kaplan-Meier Survival of mice after subcutaneous injections of ES-Cu(II) on postnatal days 7 and 10. Log-Rank statistical analysis was conducted to assess significance of survival among mo-br mice cohorts. Mo-br mice treated with 3.625 mg/kg/dose.
FIG. 8 illustrates mean body weight gain of mice after subcutaneous injections on postnatal days 7 and 10. Cohorts and number of mice/cohort are designated as follows: WT vehicle (n=13), WT Cu(II)-ES (n=12), mo-br vehicle (n=9), mo-br Cu(II)-ES (n=27), mo-br Cu(II)-2His (n=6), and mo-br ES (n=6). Growth curves are reported as the mean of each cohort±SD measured weekly.
To evaluate the potential of Cu(II)-ES in a mouse model of human copper deficiency disorder, the well-characterized mottled-brindled (mo-br) mouse model (C57BL/6-Atp7a^mo-br/J, Jackson Laboratory Stock #002566) that closely mimics the clinical and biochemical phenotypes of Menkes disease was chosen. Like in humans, these mice are characterized by mutation in ATP7a, which is an X-linked gene and therefore its mutation only affects males.

[2] = tested on: Ctrl^−/− mouse embryonic fibroblasts (MEFs); experiment: COX1 levels in Ctr1 knockout mouse embryonic fibroblasts; assay type: cell-based; conditions: increasing ES doses
Protocol: as §1, §2

## CN(NC(=O)CC(=O)NN(C)C(=S)c1ccccc1)C(=S)c1ccccc1 [ES, elesclomol]
BY4741 WT cells
  rescue of BCS-reduced respiratory growth: rescued
coa6Δ cells
  oxygen consumption rate: restored the oxygen consumption rate of coa6Δ cells to that of wild type cells
ccs1Δ cells
  rescue of the respiratory growth defect: rescue
Control MEFs
  ES toxicity reflected in COX1 levels: reduced COX1 levels
[1]; mouse, in vivo
  mean survival time: 17.0 ± 0.9 days
[1]; subcutaneous, postnatal days 7 and 10
  weekly time point by which all mice of the cohort had expired: ≤ 2 week
[2]
  COX1 levels: dose dependent rescue
